Test results: patent publication US20240239752A1, “BICYCLIC HETEROAROMATIC INHIBITORS OF KLK5” (BioCryst Pharmaceuticals, Inc., priority 2021, published 2024)

The compounds below were run against T1, recombinant human KLK5 (Homo sapiens, UniProt Q9Y337) (assay: Kallikrein (KLK) 5 enzymatic assay (Boc-VPR-AMC fluorogenic substrate)). Conditions: recombinant human KLK5 0.1 μg/well, Boc-VPR-AMC 100 μM, pH 7.5, room temperature, 1% DMSO; tested a minimum of three times.
T1 construct: purchased Novoprotein or R&D Systems C415 or 1108-SE
T1 sequence (Q9Y337 23-293): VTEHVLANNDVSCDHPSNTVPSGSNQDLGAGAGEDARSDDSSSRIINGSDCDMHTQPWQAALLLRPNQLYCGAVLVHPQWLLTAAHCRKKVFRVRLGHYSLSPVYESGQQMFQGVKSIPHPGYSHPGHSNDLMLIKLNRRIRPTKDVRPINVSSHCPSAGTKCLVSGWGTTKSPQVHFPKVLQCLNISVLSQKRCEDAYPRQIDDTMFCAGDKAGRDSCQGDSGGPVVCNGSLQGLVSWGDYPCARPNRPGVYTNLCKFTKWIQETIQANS
Type: biochemical
From the text: Kallikrein-5 (KLK5) is a member of the serine protease family of proteolytic enzymes, confirmed to have trypsin-like activity (Michael I P, et al. Biochemical and enzymatic characterization of human kallikrein 5 (hK5), a novel serine protease potentially involved in cancer progression (J. Biol. Chem. 2005 Apr. 15; 280 (15): 14628-35). Boc-VPR-AMC is a fluorogenic peptide substrate composed of the short peptide chain, Valine-Proline-Arginine (VPR) and the fluorophore, 7-amino-4-methylcoumarin (AMC). KLK5 is able to cleave the fluorogenic peptide substrate Boc-VPR-AMC, releasing the AMC fluorophore, which causes a fluorescent emission in proportion with the enzymatic activity of KLK5. The KLK5 enzymatic activity is monitored by measuring fluorescent emission at wavelengths of 380 nm (excitation) and 460 nm (emission).
The IC50 value of compounds against KLK5 (i.e., the concentration of the compound that inhibits 50% of the enzymatic activity) was calculated according to the procedure reported by R&D systems (Recombinant human KLK5, Catalog Number: 1108-SE), with the exception the pH of the assay was modified from 8.0 to 7.5. Specifically, recombinant human KLK5 (Novoprotein Catalog #C415 or R&D systems Catalog #1108-SE) and fluorogenic peptide Boc-VPR-AMC substrate (R&D Catalog #ES011) were each separately diluted in assay buffer (0.1 M NaH2PO4 buffer, pH 7.5). The compounds of the disclosure were dissolved in DMSO at a concentration of 10 mM. A portion of this stock solution was added to the recombinant human KLK5 solution to provide a desired concentration of the compounds and the mixture was incubated at room temperature. The reaction was initiated by the addition of the fluorogenic peptide substrate at room temperature. The final concentration of recombinant human KLK5 was 0.1 μg/well and the final concentration of the fluorogenic substrate was 100 μM (final volume of 100 μL, 1% DMSO). The assays were performed in 96 well F16 Black Maxisorp Plate (Nunc Catalog #475515). Controls included assay buffer alone and enzyme solutions to which DMSO was added. The reaction rates were measured spectrophotometrically by excitation at 380 nm and emission at 460 nm on a Biotek Synergy H1 plate reader.
The reaction rate for enzyme alone was compared to the reaction rate of enzyme in the presence of compound and the percent inhibition was calculated as shown below:
Percent Inhibition=[Rate with inhibitor/Rate without inhibitor)]×100
An IC50 indicates a compound concentration that inhibits 50% of the enzymatic activity. Compounds were tested a minimum of three times.

SMILES	IC50 [nM]
COc1ccc(CC(=O)O)c(OCc2c3cc(-c4ccc5ccnc(N)c5c4)ccc3nn2C2CCC2)c1 [Compound 20b, 2-(2-((5-(1-aminoisoquinolin-7-yl)-2-cyclobutyl-2H-indazol-3-yl)methoxy)-4-methoxyphenyl)acetic acid]	1000 to 10000
Cc1ccc(OCc2nn(C3CCC3)c3ccc(-c4ccc5ccnc(N)c5c4)cc23)c(CC(=O)O)c1 [Compound 164c, 2-(2-((5-(1-aminoisoquinolin-7-yl)-1-cyclobutyl-1H-indazol-3-yl)methoxy)-5-methylphenyl)acetic acid]	1000 to 10000
Nc1nccc2c(-c3ccc4c(c3)c(CCc3ccccc3CC(=O)O)cn4C3CCOC3)cccc12 (centres unmarked) [Compound 302b, 2-(2-(2-(5-(1-aminoisoquinolin-5-yl)-1-(tetrahydrofuran-3-yl)-1H-indol-3-yl)ethyl)phenyl)acetic acid]	< 1000
CC(C)(C)OC(=O)N1CCC2(CC1)CC(Oc1ccccc1CC(=O)O)c1cc(-c3cccc4c(N)nccc34)ccc12 (centres unmarked) [Compound 347d, 2-(2-((5-(1-aminoisoquinolin-5-yl)-1′-(tert-butoxycarbonyl)-2,3-dihydrospiro[indene-1,4′-piperidin]-3-yl)oxy)phenyl)acetic acid]	< 1000
CCOC(=O)N1CC(n2nc3ccc(-c4cccc5c(N)nccc45)cc3c2COc2ccccc2CC(=O)O)C1 [Compound 126c, 2-(2-((5-(1-aminoisoquinolin-5-yl)-2-(1-(ethoxycarbonyl)azetidin-3-yl)-2H-indazol-3-yl)methoxy)phenyl)acetic acid]	1000 to 10000
CC(=O)N1CCC2(CC1)CC(Oc1cccc(C)c1CC(=O)O)c1cc(-c3ccc4ccnc(N)c4c3)ccc12 (centres unmarked) [Compound 406c, 2-(2-((1′-acetyl-5-(1-aminoisoquinolin-7-yl)-2,3-dihydrospiro[indene-1,4′-piperidin]-3-yl)oxy)-6-methylphenyl)acetic acid]	< 1000
CC(C)Cn1nc(COc2ccccc2CC(=O)O)c2cc(-c3ccc4ccnc(N)c4c3)ccc21 [Compound 188e, 2-(2-((5-(1-aminoisoquinolin-7-yl)-1-isobutyl-1H-indazol-3-yl)methoxy)phenyl)acetic acid]	< 1000
Nc1nccc2ccc(-c3ccc4c(c3)c(COc3c(CC(=O)O)cccc3C(=O)O)nn4C3CCC3)cc12 [Compound 176a, 2-((5-(1-aminoisoquinolin-7-yl)-1-cyclobutyl-1H-indazol-3-yl)methoxy)-3-(carboxymethyl)benzoic acid]	< 1000
Cc1cccc(OCc2nn(CC3CCOC3)c3ccc(-c4cccc5c(N)nccc45)cc23)c1CC(=O)O (centres unmarked) [Compound 94e, 2-(2-((5-(1-aminoisoquinolin-5-yl)-1-((tetrahydrofuran-3-yl)methyl)-1H-indazol-3-yl)methoxy)-6-methylphenyl)acetic acid]	< 1000
COc1ccc(CC(=O)O)c(OCc2nn(C)c3ccc(-c4ccc5ccnc(N)c5c4)cc23)c1 [Compound 71d, 2-(2-((5-(1-aminoisoquinolin-7-yl)-1-methyl-1H-indazol-3-yl)methoxy)-4-methoxyphenyl)acetic acid]	< 1000
Cn1c(=O)n(Cc2ccccc2CC(=O)O)c2cc(-c3cccc4c(N)nccc34)ccc21 [Compound 218b, 2-(2-((6-(1-aminoisoquinolin-5-yl)-3-methyl-2-oxo-2,3-dihydro-1H-benzo[d]imidazol-1-yl)methyl)phenyl)acetic acid]	1000 to 10000
N=C(N)c1cccc(-c2ccc3c(c2)c(COc2ccccc2CC(=O)O)nn3CC2CCC2)c1 [Compound 254c, 2-(2-((5-(3-carbamimidoylphenyl)-1-(cyclobutylmethyl)-1H-indazol-3-yl)methoxy)phenyl)acetic acid]	< 1000
COc1ccc(CC(=O)O)c(OCc2nn(C(C)C)c3ccc(-c4ccc5ccnc(N)c5c4)cc23)c1 [Compound 61b, 2-(2-((5-(1-aminoisoquinolin-7-yl)-1-isopropyl-1H-indazol-3-yl)methoxy)-4-methoxyphenyl)acetic acid]	< 1000
CC(C)n1nc(COc2ccccc2CC(=O)O)c2cc(-c3ccc4cc(Cl)nc(N)c4c3)ccc21 [Compound 46d, 2-(2-((5-(1-amino-3-chloroisoquinolin-7-yl)-1-isopropyl-1H-indazol-3-yl)methoxy)phenyl)acetic acid]	> 10000
Nc1nccc2ccc(-c3ccc4c(c3)C(Oc3ccccc3CC(=O)O)c3ccccc3-4)cc12 (centres unmarked) [Compound 209e, 2-(2-((2-(1-aminoisoquinolin-7-yl)-9H-fluoren-9-yl)oxy)phenyl)acetic acid]	< 1000
Nc1nccc2c(-c3ccc4c(c3)c(COc3ccccc3CC(=O)O)nn4C3CN(CCO)C3)cccc12 [Compound 147c, 2-(2-((5-(1-aminoisoquinolin-5-yl)-1-(1-(2-hydroxyethyl)azetidin-3-yl)-1H-indazol-3-yl)methoxy)phenyl)acetic acid]	< 1000
CC(C)n1nc(COc2ccccc2CC(=O)O)c2cc(-c3ccc4c(c3)[C@H](N)CO4)ccc21 [Compound 79c, (S)-2-(2-((5-(3-amino-2,3-dihydrobenzofuran-5-yl)-1-isopropyl-1H-indazol-3-yl)methoxy)phenyl)acetic acid]	> 10000
Cc1ccc(CC(=O)O)c(OCc2nn(C(C)C)c3ccc(-c4cccc(C(=N)N)c4)cc23)c1 [Compound 103c, 2-(2-((5-(3-carbamimidoylphenyl)-1-isopropyl-1H-indazol-3-yl)methoxy)-4-methylphenyl)acetic acid]	< 1000
CC(C)n1nc(COc2ccccc2CC(=O)O)c2cc(-c3ccc4ccnc(O)c4c3)ccc21 [Compound 44d, 2-(2-((5-(1-hydroxyisoquinolin-7-yl)-1-isopropyl-1H-indazol-3-yl)methoxy)phenyl)acetic acid]	> 10000
COc1c(C(=N)N)cccc1-c1ccc2c(c1)c(COc1ccccc1CC(=O)O)nn2CC1CCC1 [Compound 255d, 2-(2-((5-(3-carbamimidoyl-2-methoxyphenyl)-1-(cyclobutylmethyl)-1H-indazol-3-yl)methoxy)phenyl)acetic acid]	< 1000
CC(C)n1nc(COc2ccccc2CC(=O)O)c2cc(-c3ccc4nc(N)ccc4c3)ccc21 [Compound 35c, 2-(2-((5-(2-aminoquinolin-6-yl)-1-isopropyl-1H-indazol-3-yl)methoxy)phenyl)acetic acid]	> 10000
CC[C@H](C)n1nc(COc2ccccc2CC(=O)O)c2cc(-c3ccc4ccnc(N)c4c3)ccc21 [Compound 192e, (S)-2-(2-((5-(1-aminoisoquinolin-7-yl)-1-(sec-butyl)-1H-indazol-3-yl)methoxy)phenyl)acetic acid]	< 1000
Nc1nccc2c(-c3ccc4c(c3)C(COc3ccccc3CC(=O)O)=CC43CCCC3)cccc12 [Compound 400f, 2-(2-((5′-(1-aminoisoquinolin-5-yl)spiro[cyclopentane-1,1′-inden]-3′-yl)methoxy)phenyl)acetic acid]	< 1000
CCOC(=O)N1CC[C@H](n2nc(COc3cccc(C4CC4)c3CC(=O)O)c3cc(-c4cccc5c(N)nccc45)ccc32)C1 [Compound 357b, (S)-2-(2-((5-(1-aminoisoquinolin-5-yl)-1-(1-(ethoxycarbonyl)pyrrolidin-3-yl)-1H-indazol-3-yl)methoxy)-6-cyclopropylphenyl)acetic acid]	< 1000
COCCN1CC[C@H](n2nc3ccc(-c4ccc5ccnc(N)c5c4)cc3c2COc2ccccc2CC(=O)O)C1 [Compound 118b, (S)-2-(2-((5-(1-aminoisoquinolin-7-yl)-2-(1-(2-methoxyethyl)pyrrolidin-3-yl)-2H-indazol-3-yl)methoxy)phenyl)acetic acid]	1000 to 10000
Nc1nccc2ccc(-c3ccc4c(c3)C(Oc3cc(F)ccc3CC(=O)O)CC43CCCC3)cc12 (centres unmarked) [Compound 443b, 2-(2-((5′-(1-aminoisoquinolin-7-yl)-2′,3′-dihydrospiro[cyclopentane-1,1′-inden]-3′-yl)oxy)-4-fluorophenyl)acetic acid]	< 1000
